Test results from the supplement of paper PMC10307832.

Columns and labels:
Experiment in all cases: relative viability (nuclei count vs DMSO), 5 days (fraction); higher = more cells survive
NCI-H460 = test system: NCI-H460
Summary of the method: (§1)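 Lung cancer cell lines in 1536-well plates were dosed by pin tool the day after seeding, either with one drug alone or with a fixed anchor-drug dose plus five library-drug doses (not always all listed) in √10 steps. After 5 days, cells were fixed and their nuclei stained in one step (final 0.05% Triton X-100, 1% formaldehyde, 1 ug/ml Hoechst), then counted on 4× images. Relative viability is the nuclei count in treated wells divided by that in vehicle wells. Values are medians of duplicate plates.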

NCI-H1650 = test system: NCI-H1650
Summary of the method: as §1

NCI-H2087 = test system: NCI-H2087
Summary of the method: as §1

NCI-H596 = test system: NCI-H596
Summary of the method: as §1

PC-3 [JPC-3] = test system: PC-3 [JPC-3]
Summary of the method: as §1

NCI-H1915 = test system: NCI-H1915
Summary of the method: as §1

NCI-H1944 = test system: NCI-H1944
Summary of the method: as §1

NCI-H1792 = test system: NCI-H1792
Summary of the method: as §1

CAL-12T = test system: CAL-12T
Summary of the method: as §1

NCI-H2023 = test system: NCI-H2023
Summary of the method: as §1

ABC-1 = test system: ABC-1
Summary of the method: as §1

201T = test system: 201T
Summary of the method: as §1

NCI-H520 = test system: NCI-H520
Summary of the method: as §1

LCLC-97TM1 = test system: LCLC-97TM1
Summary of the method: as §1

A-427 = test system: A-427
Summary of the method: as §1

NCI-H441 = test system: NCI-H441
Summary of the method: as §1

NCI-H661 = test system: NCI-H661
Summary of the method: as §1

LC-2-ad = test system: LC-2-ad
Summary of the method: as §1

NCI-H650 = test system: NCI-H650
Summary of the method: as §1

H3255 = test system: H3255
Summary of the method: as §1

NCI-H1651 = test system: NCI-H1651
Summary of the method: as §1

NCI-H727 = test system: NCI-H727
Summary of the method: as §1

BEN = test system: BEN
Summary of the method: as §1

SMILES: Oc1nc(-c2ccc(C(F)(F)F)cc2)nc2c1CSCC2 [XAV939] + CS(=O)(=O)N1CCN(Cc2cc3nc(-c4cccc5[nH]ncc45)nc(N4CCOCC4)c3s2)CC1 [Pictilisib] (partner 1 µM)
- relative viability (NCI-H460; first compound 0.08 µM): 0.362
- relative viability (NCI-H460; first compound 0.253 µM): 0.332
- relative viability (NCI-H460; first compound 0.8 µM): 0.284
- relative viability (NCI-H460; first compound 2.53 µM): 0.334
- relative viability (NCI-H1650; first compound 0.08 µM): 0.587
- relative viability (NCI-H1650; first compound 0.253 µM): 0.615
- relative viability (NCI-H1650; first compound 0.8 µM): 0.49
- relative viability (NCI-H1650; first compound 2.53 µM): 0.394
- relative viability (NCI-H2087; first compound 0.08 µM): 0.976
- relative viability (NCI-H2087; first compound 0.253 µM): 0.636
- relative viability (NCI-H2087; first compound 0.8 µM): 0.897
- relative viability (NCI-H2087; first compound 2.53 µM): 0.876
- relative viability (NCI-H596; first compound 0.08 µM): 0.427
- relative viability (NCI-H596; first compound 0.253 µM): 0.384
- relative viability (NCI-H596; first compound 0.8 µM): 0.422
- relative viability (NCI-H596; first compound 2.53 µM): 0.4
- relative viability (PC-3 [JPC-3]; first compound 0.08 µM): 0.681
- relative viability (PC-3 [JPC-3]; first compound 0.253 µM): 0.602
- relative viability (PC-3 [JPC-3]; first compound 0.8 µM): 0.663
- relative viability (PC-3 [JPC-3]; first compound 2.53 µM): 0.697
- relative viability (NCI-H1915; first compound 0.08 µM): 1.11
- relative viability (NCI-H1915; first compound 0.253 µM): 0.967
- relative viability (NCI-H1915; first compound 0.8 µM): 0.941
- relative viability (NCI-H1915; first compound 2.53 µM): 0.921
- relative viability (NCI-H1944; first compound 0.08 µM): 0.37
- relative viability (NCI-H1944; first compound 0.253 µM): 0.197
- relative viability (NCI-H1944; first compound 0.8 µM): 0.348
- relative viability (NCI-H1944; first compound 2.53 µM): 0.287
- relative viability (NCI-H1792; first compound 0.08 µM): 0.331
- relative viability (NCI-H1792; first compound 0.253 µM): 0.254
- relative viability (NCI-H1792; first compound 0.8 µM): 0.229
- relative viability (NCI-H1792; first compound 2.53 µM): 0.257
- relative viability (CAL-12T; first compound 0.08 µM): 0.433
- relative viability (CAL-12T; first compound 0.253 µM): 0.33
- relative viability (CAL-12T; first compound 0.8 µM): 0.373
- relative viability (CAL-12T; first compound 2.53 µM): 0.34
- relative viability (NCI-H2023; first compound 0.08 µM): 0.177
- relative viability (NCI-H2023; first compound 0.253 µM): 0.187
- relative viability (NCI-H2023; first compound 0.8 µM): 0.176
- relative viability (NCI-H2023; first compound 2.53 µM): 0.158
- relative viability (ABC-1; first compound 0.08 µM): 0.759
- relative viability (ABC-1; first compound 0.253 µM): 0.581
- relative viability (ABC-1; first compound 0.8 µM): 0.602
- relative viability (ABC-1; first compound 2.53 µM): 0.348
- relative viability (201T; first compound 0.08 µM): 0.673
- relative viability (201T; first compound 0.253 µM): 0.593
- relative viability (201T; first compound 0.8 µM): 0.583
- relative viability (201T; first compound 2.53 µM): 0.525
- relative viability (NCI-H520; first compound 0.08 µM): 0.24
- relative viability (NCI-H520; first compound 0.253 µM): 0.251
- relative viability (NCI-H520; first compound 0.8 µM): 0.236
- relative viability (NCI-H520; first compound 2.53 µM): 0.227
- relative viability (LCLC-97TM1; first compound 0.08 µM): 0.169
- relative viability (LCLC-97TM1; first compound 0.253 µM): 0.198
- relative viability (LCLC-97TM1; first compound 0.8 µM): 0.165
- relative viability (LCLC-97TM1; first compound 2.53 µM): 0.18
- relative viability (A-427; first compound 0.08 µM): 0.962
- relative viability (A-427; first compound 0.253 µM): 0.63
- relative viability (A-427; first compound 0.8 µM): 0.596
- relative viability (A-427; first compound 2.53 µM): 0.65
- relative viability (NCI-H441; first compound 0.08 µM): 0.605
- relative viability (NCI-H441; first compound 0.253 µM): 0.461
- relative viability (NCI-H441; first compound 0.8 µM): 0.517
- relative viability (NCI-H441; first compound 2.53 µM): 0.603
- relative viability (NCI-H661; first compound 0.08 µM): 0.477
- relative viability (NCI-H661; first compound 0.253 µM): 0.378
- relative viability (NCI-H661; first compound 0.8 µM): 0.329
- relative viability (NCI-H661; first compound 2.53 µM): 0.267
- relative viability (LC-2-ad; first compound 0.08 µM): 0.5
- relative viability (LC-2-ad; first compound 0.253 µM): 1.13
- relative viability (LC-2-ad; first compound 0.8 µM): 0.407
- relative viability (LC-2-ad; first compound 2.53 µM): 0.428
- relative viability (NCI-H650; first compound 0.08 µM): 0.916
- relative viability (NCI-H650; first compound 0.253 µM): 1.05
- relative viability (NCI-H650; first compound 0.8 µM): 0.881
- relative viability (NCI-H650; first compound 2.53 µM): 0.74
- relative viability (H3255; first compound 0.08 µM): 0.486
- relative viability (H3255; first compound 0.253 µM): 0.374
- relative viability (H3255; first compound 0.8 µM): 0.499
- relative viability (H3255; first compound 2.53 µM): 0.288
- relative viability (NCI-H1651; first compound 0.08 µM): 0.569
- relative viability (NCI-H1651; first compound 0.253 µM): 0.454
- relative viability (NCI-H1651; first compound 0.8 µM): 0.53
- relative viability (NCI-H1651; first compound 2.53 µM): 0.638
- relative viability (NCI-H727; first compound 0.08 µM): 0.367
- relative viability (NCI-H727; first compound 0.253 µM): 0.324
- relative viability (NCI-H727; first compound 0.8 µM): 0.415
- relative viability (NCI-H727; first compound 2.53 µM): 0.357
- relative viability (BEN; first compound 0.08 µM): 0.579
- relative viability (BEN; first compound 0.253 µM): 0.472
- relative viability (BEN; first compound 0.8 µM): 0.529
